According to patent US9873680B2 (Gilead Sciences, Inc., priority 2014, dated 2018):
Like-named read-outs stand apart in the source and are kept apart here.

Key:
[1] = Test B: Cytotoxicity Assay; type: cell-based; conditions: human, uninfected MT-4 cells, CellTiter-Glo
Protocol: Test B: Cytotoxicity Assay Compound cytotoxicity and the corresponding CC50 values was determined using the same protocol as described in the antiviral assay (Test A) except that uninfected cells were used.

HIV-IIIb = test: Test A: Antiviral Assay in MT4 Cells; type: cell-based, HIV-1; conditions: for inhibition at 0.2 µM: 0.2 μM drug concentration
Outline: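 Readout was CellTiter-Glo luminescence after 10 min room-temperature lysis, taken 5 days after plating at 37 °C. The 2000 MT-4 cells per well, mixed 1 h beforehand with HIV-IIIb (m.o.i. 0.003), went straight onto the diluted compound.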

[2] = Human immunodeficiency virus 1, MT4, 120 h, MT-4 cells infected with HIV-IIIb, 5 days, values normalized to 100%, average over time, read-out: % inhibition at 0.2 μM (percent inhibition of virus-induced cell killing)

Structure (SMILES)	CC50 at 5 days [1] [µM]	inhibition at 0.2 µM (HIV-IIIb; [2]) [%]	inhibition at 0.2 µM (HIV-IIIb; Human immunodeficiency virus 1, IIIB, MT4, comparison with previously published compounds, read-out: Response at 0.2 μM (percent inhibition of virus-induced cell killing)) [%]	inhibition at 2 µM (HIV-IIIb; Human immunodeficiency virus 1, IIIB, MT4, 2 μM drug concentration, comparison with previously published compounds, read-out: Response at 2 μM (percent inhibition of virus-induced cell killing)) [%]
Cn1nc(NS(C)(=O)=O)c2c(Cl)ccc(-c3ccc(C#CC4(O)CC(F)(F)C4)nc3[C@H](Cc3cccc(F)c3)NC(=O)Cn3nc(C(F)(F)F)c4c3C(F)(F)[C@@H]3C[C@H]43)c21 [Compound 102, N—((S)-1-(3-(4-chloro-1-methyl-3-(methylsulfonamido)-1H-indazol-7-yl)-6-((3,3-difluoro-1-hydroxycyclobutyl)ethynyl)pyridin-2-yl)-2-(3-fluorophenyl)ethyl)-2-((3bS,4aR)-5,5-difluoro-3-(trifluoromethyl)-3b,4,4a,5-tetrahydro-1H-cyclopropa[3,4]cyclopenta[1,2-c]pyrazol-1-yl)acetamide]	7.17	88		
Cn1nc(NS(C)(=O)=O)c2c(Cl)ccc(-c3ccc(C#CC4(O)CC(F)(F)C4)nc3[C@H](Cc3cc(F)cc(F)c3)NC(=O)Cn3nc(C(F)(F)F)c4c3C(F)(F)[C@@H]3C[C@H]43)c21 [Compound 103, N—((S)-1-(3-(4-chloro-1-methyl-3-(methylsulfonamido)-1H-indazol-7-yl)-6-((3,3-difluoro-1-hydroxycyclobutyl)ethynyl)pyridin-2-yl)-2-(3,5-difluorophenyl)ethyl)-2-((3bS,4aR)-5,5-difluoro-3-(trifluoromethyl)-3b,4,4a,5-tetrahydro-1H-cyclopropa[3,4]cyclopenta[1,2-c]pyrazol-1-yl)acetamide]	9.21	100		
Cn1nc(NS(C)(=O)=O)c2c(Cl)ccc(-c3ccc(C#CC4(O)CC(F)(F)C4)nc3[C@H](Cc3cc(F)cc(F)c3)NC(=O)Cn3nc(C(F)F)c4c3C(F)(F)CCC4(F)F)c21 [Compound 104, (S)—N-(1-(3-(4-chloro-1-methyl-3-(methylsulfonamido)-1H-indazol-7-yl)-6-((3,3-difluoro-1-hydroxycyclobutyl)ethynyl)pyridin-2-yl)-2-(3,5-difluorophenyl)ethyl)-2-(3-(difluoromethyl)-4,4,7,7-tetrafluoro-4,5,6,7-tetrahydro-1H-indazol-1-yl)acetamide]	8.42	100		
Cn1nc(NS(C)(=O)=O)c2cccc(-c3ccc(C#CC4(O)CC(F)(F)C4)nc3[C@H](Cc3cc(F)cc(F)c3)NC(=O)Cn3nc(C(F)(F)F)c4c3C(F)(F)[C@@H]3C[C@H]43)c21 [Compound 105D]	6.46	88		
NC(=O)c1cc(-c2ccc(C#CC3(O)CC(F)(F)C3)nc2[C@H](Cc2cc(F)cc(F)c2)NC(=O)Cn2nc(C(F)F)c3c2C(F)(F)[C@@H]2C[C@H]32)ccc1F [Compound 106C, 5-(6-((3,3-difluoro-1-hydroxycyclobutyl)ethynyl)-2-((S)-1-(2-((3bS,4aR)-3-(difluoromethyl)-5,5-difluoro-3b,4,4a,5-tetrahydro-1H-cyclopropa[3,4]cyclopenta[1,2-c]pyrazol-1-yl)acetamido)-2-(3,5-difluorophenyl)ethyl)pyridin-3-yl)-2-fluorobenzamide]	2.85	100		
NC(=O)c1cc(-c2ccc(C#CC3(O)CC(F)(F)C3)nc2[C@H](Cc2cc(F)cc(F)c2)NC(=O)Cn2nc(C(F)(F)F)c3c2C(F)(F)[C@@H]2C[C@H]32)ccc1F [Compound 107, 5-(6-((3,3-difluoro-1-hydroxycyclobutyl)ethynyl)-2-((S)-1-(2-((3bS,4aR)-5,5-difluoro-3-(trifluoromethyl)-3b,4,4a,5-tetrahydro-1H-cyclopropa[3,4]cyclopenta[1,2-c]pyrazol-1-yl)acetamido)-2-(3,5-difluorophenyl)ethyl)pyridin-3-yl)-2-fluorobenzamide]	3.64	99	99	99
Cn1nc(O)c2c(Cl)ccc(-c3ccc(C#CC4(O)CCOCC4)nc3[C@H](Cc3cc(F)cc(F)c3)NC(=O)Cn3nc(C(F)F)c4c3C(F)(F)[C@@H]3C[C@H]43)c21 [Compound 109E, N—((S)-1-(3-(4-chloro-3-hydroxy-1-methyl-1H-indazol-7-yl)-6-((4-hydroxytetrahydro-2H-pyran-4-yl)ethynyl)pyridin-2-yl)-2-(3,5-difluorophenyl)ethyl)-2-((3bS,4aR)-3-(difluoromethyl)-5,5-difluoro-3b,4,4a,5-tetrahydro-1H-cyclopropa[3,4]cyclopenta[1,2-c]pyrazol-1-yl)acetamide]	22.3	100		
